From publication PMC7942396, “Drug Repurposing Screen for Compounds Inhibiting the Cytopathic Effect of SARS-CoV-2” (Frontiers in Pharmacology, 2021)
Several values for one entry are separate records, joined by “and”; a condition that tells them apart may be missing. Identical values can stand only once. Counter-ions that a name gives are not always drawn. Like-named read-outs stand apart in the source and are kept apart here.

Assays:
[1] = test system: SARS-CoV-2 (USA_WA1/2020); assay: microbe, parasite or virus in culture; type: cell-based; conditions: for Emax: Severe acute respiratory syndrome coronavirus 2, Vero C1008, DMSO 0%, no-virus control 100%, hit confirmation, read-out: CPE % efficacy
[2] = human, cited from earlier work
SARS-CoV = conditions: ref Barnard et al., 2008; read-out: EC50, inhibition of SARS-CoV replication; cited from earlier work
in vitro = conditions: African green monkey
Ebola virus = conditions: ref Kouznetsova et al., 2019; read-out: EC50, block of Ebola viral entry; cited from earlier work
Vero E6 cells = assay: cells; conditions: Chlorocebus sabaeus, Vero C1008, read-out: % Viability: IC50
SARS-CoV-2 [3] = test system: SARS-CoV-2; set-up: method as in Stanford University, 2020; conditions: Vero E6 cells; ref Stanford University, 2020; read-out: EC50 against SARS-CoV-2; cited from earlier work
SARS-CoV-2 [4] = test system: SARS-CoV-2; set-up: method as in Stanford University, 2020; conditions: Calu-3 or Huh7 cell lines; ref Stanford University, 2020; read-out: EC50 against SARS-CoV-2; cited from earlier work
P-glycoprotein (P-gp) = test system: P-glycoprotein (P-gp); set-up: method as in EMA, 2020; conditions: ref EMA, 2020; cited from earlier work
[5] = Severe acute respiratory syndrome coronavirus 2, Vero C1008, 72 h, read-out: CPE EC50

Compound	EC50 [1, 5] [µM]	Emax [1] [%]	Elimination T1/2 ([2]; Single dose 100 mg IV, ref Bagli et al. (1996)) [h]	EC50 (SARS-CoV) [µM]	cytotoxicity (in vitro) [%]	EC50 (Ebola virus) [µM]	EC50 ([1]; Severe acute respiratory syndrome coronavirus 2, Vero C1008, independent runs of primary screens and hit confirmation, read-out: EC50 in the CPE assay, control concentration-response per run) [µM]	IC50 ([1]; Severe acute respiratory syndrome coronavirus 2, Vero C1008, printed in picture of Figure 2B, one value per run, read-out: % CPE Rescue: IC50) [µM]	EC50 ([1]; independent runs of primary screens and hit confirmation, listed as remdesivir, read-out: EC50 in the CPE assay, control concentration-response per run) [µM]	EC50 ([1]; independent runs of primary screens and hit confirmation, read-out: EC50 in the CPE assay, control concentration-response per run)	IC50 (Vero E6 cells) [µM]	EC50 (SARS-CoV-2 [3]) [µM]	EC50 (SARS-CoV-2 [4]) [µM]	Substrate of Pgp (P-glycoprotein (P-gp))	Elimination T1/2 ([2]; Single dose 25 mg PO, ref AA Pharma Inc. (2012)) [h]	cytotoxicity at 72 h (in vitro) [%]
CN(C)CC/C=C1/c2ccccc2Sc2ccc(Cl)cc21 [Chlorprothixene, reference compound]	10	104	25.8 ± 13.6	~10	< 30											
CC(=O)c1ccc2c(c1)N(CCCN1CCC(CCO)CC1)c1ccccc1S2 [Piperacetazine, reference compound]	10	104			< 30	9.68										
CCC(CC)COC(=O)[C@H](C)N[P@](=O)(OC[C@H]1O[C@@](C#N)(c2ccc3c(N)ncnn23)[C@H](O)[C@@H]1O)Oc1ccccc1 [Remdesivir, reference compound]	10	133			< 30		4.56	4.56	5.17	4.42 µM and 7.28 µM	> 30	> 1	> 0.05	substrate of Pgp		
COc1ccc2c(c1)N(C[C@H](C)CN(C)C)c1ccccc1S2 [Methotrimeprazine maleate, reference compound]	10	84.6		~10											10.8	< 30
